In patent US9216968B2, “Heterocyclic derivative and pharmaceutical drug” (NIPPON SHINYAKU CO., LTD., priority 2011, dated 2015):
Counter-ions that a name gives are not always drawn.

Molecular target: human mPGES-1 (Homo sapiens (Human), UniProt O14684)
Assay: mPGES-1 inhibiting activity (microsome fractions, PGE2 by HTRF)
Assay type: biochemical
Conditions: microsomes from CHO-K1 cells transfected with human mPGES-1; PGH2 1 μM, 4° C., 60 seconds; read-out: mPGES-1 Inhibition IC50
Procedure: mPGES-1 microsome fractions were prepared from CHO-K1 cells transiently transfected with plasmid encoding the human mPGES-1cDNA. Microsomes were diluted with potassium phosphate buffer containing reduced glutathione (pH7.4), and DMSO containing test compound or DMSO alone was added (such that DMSO final concentration would be 1% in each) and incubated at 4° C. for 20 minutes. Then, the enzymatic reactions were initiated by the addition of PGH2 substrate (final concentration 1 μM) and incubated at 4° C. for 60 seconds. The reaction was terminated by the addition of a citrate solution (final citrate concentration 50 mM) containing ferric chloride (final concentration 1 mg/mL). PGE2 production in the enzyme reaction aliquot was measured using HTRF kit (Cisbio International, catalogue #62P2APEC). The solution free of test compound was used as positive control, and the solution free of test compound and microsome sample was used as negative control. 100% activity was defined as PGE2 production in the positive control minus PGE2 production in negative control. IC50 value was calculated by standard method.

Sequence of human mPGES-1 (O14684 whole entry): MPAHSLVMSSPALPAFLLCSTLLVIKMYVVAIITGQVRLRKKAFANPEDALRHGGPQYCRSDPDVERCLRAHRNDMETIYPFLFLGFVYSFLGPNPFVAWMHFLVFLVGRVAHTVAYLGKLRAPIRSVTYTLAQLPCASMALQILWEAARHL

SMILES	IC50 [µM]
O=C(Nc1cc(C(=O)NCC2(O)CCCCC2)c2nc[nH]c2c1)c1ccccc1C(F)(F)F [Example 5, N-[(1-Hydroxycyclohexyl)methyl]-6-({[2-(trifluoromethyl)phenyl]carbonyl}amino)-1H-benzimidazole-4-carboxamide]	0.453
O=C(Nc1cc(C(=O)NC2CCCCC2)c2[nH]ncc2c1)c1ccccc1C(F)(F)F [Example 9, N-Cyclohexyl-5-({[2-(trifluoromethyl)phenyl]carbonyl}amino)-1H-indazole-7-carboxamide]	0.452
O=C(Nc1cc(C(=O)NCc2ccccc2C(F)(F)F)c2[nH]ncc2c1)c1ccccc1C(F)(F)F [Example 10, N-[2-(Trifluoromethyl)benzyl]-5-({[2-(trifluoromethyl)phenyl]carbonyl}amino)-1H-indazole-7-carboxamide]	0.333
Cn1cnc2c(C(=O)NC3CCCCC3)cc(NC(=O)c3ccccc3C(F)(F)F)cc21 [Example 47, N-Cyclohexyl-1-methyl-6-({[2-(trifluoromethyl)phenyl]carbonyl}amino)-1H-benzimidazole-4-carboxamide]	0.27
COCc1nc2c(C(=O)Nc3cccc(Cl)c3C)cc(NC(=O)c3ccc(C(F)(F)F)cc3C(F)(F)F)cc2[nH]1 [Example 111, 6-({[2,4-Bis(trifluoromethyl)phenyl]carbonyl}amino)-N-(3-chloro-2-methylphenyl)-2-(methoxymethyl)-1H-benzimidazole-4-carboxamide hydrochloride]	0.765
COCc1nc2c(C(=O)Nc3cccc(Cl)c3C)cc(NC(=O)c3cc(C#CCOC(C)(C)C)ccc3Cl)cc2[nH]1 [Example 117, 6-({[5-(3-tert-Butoxy-1-propynyl)-2-chlorophenyl]carbonyl}amino)-N-(3-chloro-2-methylphenyl)-2-(methoxymethyl)-1H-benz imidazole-4-carboxamide hydrochloride]	0.584
COCc1nc2c(C(=O)Nc3cccc(Cl)c3C)cc(NC(=O)c3cc(CCC(C)(C)O)ccc3Cl)cc2[nH]1 [Example 119, 6-({[2-Chloro-5-(3-hydroxy-3-methylbutyl)phenyl]carbonyl}amino)-N-(3-chloro-2-methylphenyl)-2-(methoxymethyl)-1H-benzimidazole-4-carboxamide hydrochloride]	0.208
Cc1c(Cl)cccc1NC(=O)c1cc(NC(=O)c2ccccc2C(F)(F)F)cc2[nH]c(NCC3(C)COC3)nc12 [Example 159, N-(3-Chloro-2-methylphenyl)-2-{[(3-methyloxetan-3-yl)methyl]amino}-6-({[2-(trifluoromethyl)phenyl]carbonyl}amino)-1H-benzimidazole-4-carboxamide hydrochloride]	0.403
COCc1nc2c(C(=O)Nc3cccnc3)cc(NC(=O)c3ccccc3C(F)(F)F)cc2[nH]1 [Example 216, 2-(Methoxymethyl)-N-(pyridin-3-yl)-6-({[2-(trifluoromethyl)phenyl]carbonyl}amino)-1H-benzimidazole-4-carboxamide hydrochloride]	0.204
COCc1nc2c(C(=O)Nc3cccc4nsnc34)cc(NC(=O)c3ccccc3C(F)(F)F)cc2[nH]1 [Example 221, N-(2,1,3-Benzothiadiazol-4-yl)-2-(methoxymethyl)-6-({[2-(trifluoromethyl)phenyl]carbonyl}amino)-1H-benzimidazole-4-carboxamide hydrochloride]	0.0022
COCc1nc2c(C(=O)Nc3ccc4c(c3)S(=O)(=O)C=C4)cc(NC(=O)c3ccccc3C(F)(F)F)cc2[nH]1 [Example 222, N-(1,1-Dioxide-1-benzothiophen-6-yl)-2-(methoxymethyl)-6-({[2-(trifluoromethyl)phenyl]carbonyl}amino)-1H-benzimidazole-4-carboxamide hydrochloride]	0.661
COCc1nc2c(C(=O)NCc3cccs3)cc(NC(=O)c3ccccc3C(F)(F)F)cc2[nH]1 [Example 223, 2-(Methoxymethyl)-N-(thiophen-2-ylmethyl)-6-({[2-(trifluoromethyl)phenyl]carbonyl}amino)-1H-benzimidazole-4-carboxamide hydrochloride]	0.0682
COCc1nc2c(C(=O)Nc3ccc4[nH]ccc4c3)cc(NC(=O)c3ccccc3C(F)(F)F)cc2[nH]1 [Example 224, N-(1H-Indol-5-yl)-2-(methoxymethyl)-6-({[2-(trifluoromethyl)phenyl]carbonyl}amino)-1H-benzimidazole-4-carboxamide]	0.0265
COCc1nc2c(C(=O)Nc3nc4ccccc4s3)cc(NC(=O)c3ccccc3C(F)(F)F)cc2[nH]1 [Example 225, N-(1,3-Benzothiazol-2-yl)-2-(methoxymethyl)-6-({[2-(trifluoromethyl)phenyl]carbonyl}amino)-1H-benzimidazole-4-carboxamide hydrochloride]	0.0156
COCc1nc2c(C(=O)Nc3cccs3)cc(NC(=O)c3ccccc3C(F)(F)F)cc2[nH]1 [Example 227, 2-(Methoxymethyl)-N-(thiophen-2-yl)-6-({[2-(trifluoromethyl)phenyl]carbonyl}amino)-1H-benzimidazole-4-carboxamide hydrochloride]	0.0001
COCc1nc2c(C(=O)Nc3nc4cc(Cl)ccc4o3)cc(NC(=O)c3ccccc3C(F)(F)F)cc2[nH]1 [Example 228, N-(5-Chloro-1,3-benzoxazol-2-yl)-2-(methoxymethyl)-6-({[2-(trifluoromethyl)phenyl]carbonyl}amino)-1H-benzimidazole-4-carboxamide hydrochloride]	0.0017
COCc1nc2c(C(=O)Nc3cccc(Cl)c3C)cc(NC(=O)c3cc(OCCCC(F)(F)F)ccc3Cl)cc2[nH]1 [Example 249, N-(3-Chloro-2-methylphenyl)-6-({[2-chloro-5-(4,4,4-trifluorobutoxy)phenyl]carbonyl}amino)-2-(methoxymethyl)-1H-benzimidazole-4-carboxamide hydrochloride]	0.404

More lines, now with the values ahead:

IC50 [µM]	SMILES
0.0099	Cc1c(Cl)cccc1NC(=O)c1cc(NC(=O)c2ccccc2C(F)(F)F)cc2[nH]c(C3CCCO3)nc12 (stereo in doubt) [Example 66, N-(3-Chloro-2-methylphenyl)-2-[(2S)-tetrahydrofuran-2-yl]-6-({[2-(trifluoromethyl)phenyl]carbonyl}amino)-1H-benzimidazole-4-carboxamide hydrochloride]
0.011	O=C(Nc1cc(C(=O)NCc2ccccc2C(F)(F)F)c2nc(C3CCCO3)[nH]c2c1)c1ccccc1C(F)(F)F (stereo in doubt) [Example 67, 2-[(2S)-Tetrahydrofuran-2-yl]-N-[2-(trifluoromethyl)benzyl]-6-({[2-(trifluoromethyl)phenyl]carbonyl}amino)-1H-benzimidazole-4-carboxamide hydrochloride]
0.0274	O=C(Nc1cc2c(c(C(=O)NCc3ccccc3C(F)(F)F)c1)OCC2)c1ccccc1C(F)(F)F [Example 6, N-[2-(Trifluoromethyl)benzyl]-5-({[2-(trifluoromethyl)phenyl]carbonyl}amino)-2,3-dihydro-1-benzofuran-7-carboxamide]
0.327	COCc1nc2c(C(=O)NCc3ccccc3Cl)cc(NC(=O)c3ccccc3C(F)(F)F)cc2n1C [Example 91, N-(2-Chlorobenzyl)-2-(methoxymethyl)-1-methyl-6-({[2-(trifluoromethyl)phenyl]carbonyl}amino)-1H-benzimidazole-4-carboxamide]
0.0086	COCc1nc2c(C(=O)Nc3ccsc3)cc(NC(=O)c3ccccc3C(F)(F)F)cc2[nH]1 [Example 220, 2-(Methoxymethyl)-N-(thiophen-3-yl)-6-({[2-(trifluoromethyl)phenyl]carbonyl}amino)-1H-benzimidazole-4-carboxamide hydrochloride]
0.0269	COCc1nc2c(C(=O)NCC(C)(C)C)cc(NC(=O)c3ccccc3C(F)(F)F)cc2[nH]1 [Example 226, N-(2,2-Dimethylpropyl)-2-(methoxymethyl)-6-({[2-(trifluoromethyl)phenyl]carbonyl}amino)-1H-benzimidazole-4-carboxamide hydrochloride]
0.201	COCc1nc2c(C(=O)Nc3cccc(Cl)c3C)cc(NC(=O)c3cc(OCC(F)F)ccc3Cl)cc2[nH]1 [Example 248, 6-({[2-Chloro-5-(2,2-difluoroethoxy)phenyl]carbonyl}amino)-N-(3-chloro-2-methylphenyl)-2-(methoxymethyl)-1H-benzimidazole-4-carboxamide hydrochloride]

System: A549 cells
Assay: Inhibition of PGE2 production in A549 cell (IL-1β stimulated)
Assay type: cell-based, human
Conditions: Homo sapiens, A549, 24 h, IL-1β 5 ng/well, PGE2 in culture medium
Procedure: Human A549 cells were seeded onto a 96-well plate at 2×10^4 cells/100 μL per well and allowed to incubate overnight. After removing the culture medium and washing with phosphate buffered saline, the culture medium was replaced by RPMI culture medium with 3% FBS containing a DMSO solution containing test compound or DMSO alone (such that DMSO final concentration would be […] in each). After incubation for 60 minutes, IL-1β (5 ng/well) was added and incubated at 37° C. for 24 hours. Then, PGE2 in the culture medium was measured using HTRF kit (Cisbio International, catalogue #62P2APEC), and PGF2α in the culture medium was measured using EIA kit (Cayman Chemical Company, catalogue #516011). The solution free of test compound was used as positive control, and the solution free of test compound and IL-1β was used as negative control. 100% activity was defined as PGE2 and PGF2α production in the positive control minus PGE2 and PGF2α production in the negative control. IC50 value was calculated by standard method.

IC50 [µM]	SMILES
0.0889	O=C(Nc1cc(C(=O)NCc2ccccc2C(F)(F)F)c2nc[nH]c2c1)c1ccccc1C(F)(F)F [Example 1, N-[2-(Trifluoromethyl)benzyl]-6-({[2-(trifluoromethyl)phenyl]carbonyl}amino)-1H-benzimidazol-4-carboxamide]

Same assay, conditions: IL-1β 5 ng/well, 24 hours, PGE2 in culture medium; hydrochloride

IC50 [µM]	SMILES
0.0573	Cc1c(Cl)cccc1NC(=O)c1cc(NC(=O)c2ccccc2C(F)(F)F)cc2[nH]c(C3CCCO3)nc12 (stereo in doubt) [Example 66, N-(3-Chloro-2-methylphenyl)-2-[(2S)-tetrahydrofuran-2-yl]-6-({[2-(trifluoromethyl)phenyl]carbonyl}amino)-1H-benzimidazole-4-carboxamide hydrochloride]
0.0564	O=C(Nc1cc(C(=O)NCc2ccccc2C(F)(F)F)c2nc(C3CCCO3)[nH]c2c1)c1ccccc1C(F)(F)F (stereo in doubt) [Example 67, 2-[(2S)-Tetrahydrofuran-2-yl]-N-[2-(trifluoromethyl)benzyl]-6-({[2-(trifluoromethyl)phenyl]carbonyl}amino)-1H-benzimidazole-4-carboxamide hydrochloride]
